Assay results from a melting point compilation (Tetko et al.; mined from patent text by program, amines drawn as free bases though some values may be those of a salt).

Compound | melting point [°C]
CC(C)Nc1cccnc1N1CCN(C(=O)c2ccc(C(=O)N3CCN(C4CCCC4)CC3)cc2)CC1 | 181 to 182
COc1ccc(-c2ccc(C(=O)Nc3cc4ncc(CN5CCCC5)cc4cc3C)cc2)cc1 | 194 to 198
C=CCc1cc2c(c(O)c1C)C(=O)c1c(OC)c3c(c(O)c1C2=O)-c1c(cc2cnn(-c4ccccc4)c(=O)c2c1O)CC3 | 163
Cc1ccc(-c2nc(O)c(C)s2)cc1 | 172 to 174
CCn1c(-c2ccc(OC)c(OC)c2)cc(=Nc2c(C)cc(C)cc2C)n(C)c1=O | 57 to 61
Cn1c([N+](=O)[O-])cnc1C1=NOC2CCCCC12 (stereo not given) | 119 to 121
CCOc1cccc(C(c2ccccc2Cl)n2nc(C(=O)O)c3c2-c2ccc(OCc4cncnc4)cc2CC3)c1 (stereo not given) | 234 to 235
O=C1NCC(Cc2ccccc2-c2ccccc2)O1 (stereo not given) | 146 to 148
CCC(CC)n1cc(Cl)nc(N2CCc3cc(Br)cc(Cl)c32)c1=O | 156 to 157
CCCc1nc2c(N)nc3cccnc3c2n1CCCC(C)N(OC)C(C)=O (stereo not given) | 158 to 159
CC1(C)OCC([N+](=O)[O-])CO1 | 60 to 61
COc1ccc2nc3c(C)ccc([N+](=O)[O-])c3c(Cl)c2c1 | 227 to 228
CCCCSc1ccc(C=O)cc1[N+](=O)[O-] | 93
O=CNNc1ccc(NC(=S)Nc2ccccc2)cc1 | 188
OC1(CCc2ccccc2)CCC2(CC1)OCCO2 | 109 to 110
Nc1c2c(nn1-c1ccc(Cl)cc1)CCCC2 | 140 to 142
Cc1csc2c(=O)n(CCC(C(=O)NO)N(C)S(=O)(=O)c3ccc(Oc4ccccc4)cc3)c(=O)[nH]c12 (stereo not given) | 170 to 171
CC(=O)OC1CCC2C3CCC4=CC(=O)C(I)C(C)C4(C)C3CCC12C (stereo not given) | 102
CCN(CC)c1ccc(C2(N(c3ccc(NC(C)=O)cc3)c3ccc(NC(C)=O)cc3)OC(=O)c3ccccc32)c(C)c1 (stereo not given) | 179 to 182
COCCOCCOc1cc(OC)c(/C=C/C(=O)c2ccc(C(=O)O)cc2)cc1-c1cccs1 | 174 to 175
Cn1nc(-c2c(F)cccc2Cl)nc1-c1ccc(COc2ncc(Cl)cc2Cl)c(Cl)c1 | 153 to 155

Compound | melting point [°C]
CC1(C)NC(=O)N(CC(CCS(=O)(=O)c2ccc(-c3ccc(C(F)(F)F)cc3)cc2)N(O)C=O)C1=O (stereo not given) | 125
O=S(=O)(Nc1cccc(CCOCc2csc(-c3ccc(Cl)cc3)n2)c1)C(F)(F)F | 114 to 116
Cc1ccccc1C(CCC(=O)O)Oc1cc(OCc2cccc(C(=O)O)c2)ccc1[N+](=O)[O-] (racemic) | 85 to 87
CCc1cc(-c2cccnc2)nn1-c1ccc(NCc2ccc(OCCCC#N)cc2)cc1 | 131 to 132
O=C(Nc1ccc(Cl)cc1)O[C@H]1COC(c2ccccc2)=N[C@@H]1c1ccccc1 (racemic) | 200
CCOC(=O)c1cnc2nn(C)cc2c1OCCC(C)C | 100 to 102
CC(C)(C)c1ccc(CCOc2ncnc3cnccc23)cc1 | 59 to 60
CCCCCCCCCCCCCCS(=O)(=O)c1cc(S(C)(=O)=O)ccc1-n1oc(C(C)(C)C)c(CCl)c1=O | 110 to 111
Cc1ccc(S(=O)(=O)OCCc2c(C)nc3cc(C)ccn3c2=O)cc1 | 128
O=C(O)COc1ccc(C(=O)c2ccoc2)c2ccccc12 | 177
CC(C)CC12CCC3C4CCC(=O)C=C4CCC3C1CCC2OC(=O)CCc1ccccc1 (stereo not given) | 101 to 106
CCCCCCCCCCCCCCCCN(C(=O)C(F)(F)F)c1ccc(C(=O)O)cc1 | 50 to 53
O=C(O)COc1ccc(CCNS(=O)(=O)c2ccccc2)cc1[N+](=O)[O-] | 135 to 136
CC(C)C(=O)Nc1ccnc(-c2ccncc2)n1 | 215 to 217
O=[N+]([O-])C=C1CN=C(c2ccccc2F)c2cc(Cl)ccc2N1 | 170 to 172
CC1(C)CC(=O)C2C(=NC3=C(C(=O)CC(C)(C)C3)C2c2ccc(C#N)c([N+](=O)[O-])c2)C1 (stereo not given) | 274 to 275
Cc1nc2c(N)nc3ccccc3c2n1CCC1(O)CCOCC1 | > 253
Cc1nc(N)c2nc(CONC(C)C)n(CCCCNC(=O)C(C)C)c2c1C | 156 to 157
CC1Oc2ccc(OCCCC(C)(C)C(=O)O)cc2C=C1c1nccn1C (stereo not given) | 145 to 146
Cc1ccc(S(=O)(=O)N2CCCC(CC(C#N)(c3ccc(F)cc3)c3ccc(F)cc3)C2)cc1 (stereo not given) | 142 to 143
O=C(NCCCSc1ccncc1)c1ccco1 | 98 to 99

Compound | melting point [°C]
CCN(CC1CCCC1)c1nc2c(cc1CN(Cc1cc(C(F)(F)F)cc(C(F)(F)F)c1)c1nc(C(F)(F)F)co1)c(C)nn2C | 139
N=c1sc2cc(OC(F)(F)F)ccc2n1CCCO | 106
Nc1nc(N)c(CCCNc2ccc(C(=O)N[C@@H](CCC(=O)O)C(=O)O)c(Cl)c2)c(=O)[nH]1 | 150 to 178
O=c1nc(N(Cc2nnn[nH]2)c2ccc(Cl)cc2)sc2ncccc12 | 258 to 259
N#CC1CC(C#N)(c2ccc(OC(F)F)c(OCC3CC3)c2)CCC1=O (stereo not given) | 142 to 143
OCc1cc(-c2nnc3c4ccccc4c(OCc4ccccn4)nn23)no1 | 129 to 131
Nc1nccc(OCCc2ccccc2)c1[N+](=O)[O-] | 131 to 132
CC(=O)Nc1ccc(OCC(O)CN2CCC(NC(=O)c3ccccc3)CC2)cc1 (stereo not given) | 226 to 228
CCOC(=O)c1nc(-c2ccc(=O)[nH]c2)c(-c2ccccc2)nc1N | 230 to 238
COC(=O)NCCCn1c(-c2ccc(Br)cc2)csc1=Nc1ccccc1 | 132 to 134
COc1cc(OC)c(C2=CCCCC2)c(OC)c1 | 127
Cc1nc(N)c2nc(C)n(CCCCCS(C)(=O)=O)c2c1C | 199 to 200
Cn1c(C=NNCCO)cnc1[N+](=O)[O-] | 138 to 140
CC=C1CCC2C3CCC4CC(O)C(OCC)CC4(C)C3C(=O)CC12C (stereo not given) | 172 to 178
O=C(c1ccc(Cl)cc1)c1c(N2C(=O)c3ccccc3C2=O)sc(Br)c1CBr | 173 to 175
O=C(O)CCc1nc(-c2cc3ccccc3o2)cs1 | 203 to 205
c1ccc(CNc2nccc3[nH]cnc23)cc1 | 60 to 64
CCN1CC2=C3C(=NN(c4ccc(C(C)C)cc4Br)C(=O)N3CC2)C(C)=N1 | 144 to 146
CN1C(=O)C(=C(Nc2ccc(-c3cn(C)cn3)cc2)c2ccc(CN)cc2)c2ccccc21 | > 300
CCCCCCOc1ccc(-c2nccc(-c3cccc(F)c3F)n2)cn1 | 110
Cc1nc2c(N)nc3ccccc3c2n1Cc1ccccc1 | 279 to 282

Next, values leading:

melting point [°C] | Compound
125 to 127 | CCOC(=O)N1Cc2cc(=O)[nH]nc2C(C)C1 (stereo not given)
112 to 113 | COc1ccc(-c2csc(C(=O)O)n2)cc1OC1CC2CCC1C2 (stereo not given)
163 | CCOC(=O)C1=C(C)NC(C)=C(C(=O)OC)C1c1ccc(SC)cc1 (stereo not given)
129 to 132 | CN(C)c1ccc(CNC(=O)c2ccccc2O)cc1
222 to 224 | Cc1cc2c3c(c1)NC(=O)c1ccccc1N3CC2
211 to 215 | Cc1ccc2c(c1)Oc1sc(C)cc1C(=O)N2
209 to 211 | O=C(NNS(=O)(=O)c1ccccc1)c1ccc2[nH]ccc2c1
170 | COC(=O)[C@H](CC1=CCC(N)(O)C=C1)NC(=O)c1ccccc1 (stereo not given in full)
139 to 140 | Cc1cc(C(=O)O)ccc1C1=CCC2CC1C2(C)C (stereo not given)
183 to 184 | COC(=O)C1C(=O)Nc2ccc(C(F)(F)F)cc2CC1c1ccccc1Cl (stereo not given)
93 | CCOC(=O)c1cc(CCc2cc(OC)ccc2OC)ccc1NC(C)=O
165 to 166 | CCCC1=C(c2ccc(F)cc2)C(=NO)CC1
112 to 113 | CCOC(=O)/C=C/c1cn(-c2ccc(C(F)(F)F)cn2)nc1C(C)C
100 to 101 | CS(=O)(=O)OCCC1c2ccccc2C(=O)N1c1ccccc1 (stereo not given)
179 to 181 | CNC(=O)[C@H]1CN(c2cc(F)c(N3CCOCC3)c(F)c2)C(=O)O1
110 to 111 | CC1=NN(C)C(=O)C1(Cl)C(=O)c1cc(C)ccc1[N+](=O)[O-] (stereo not given)
> 250 | COC(=O)c1ccc(-c2nc3[nH]c4ccccc4c3c(=O)[nH]2)cc1
87.8 to 89.6 | CCOC(=O)C1=Cc2cc(SC)ccc2OC1C(F)(F)F (stereo not given)
130 to 133 | CCOC(=O)C1=C(C)NC(C=O)=C(C(=O)OCC)C1c1cccc([N+](=O)[O-])c1 (stereo not given)

melting point [°C] | Compound
136 | C#C/C(=C\c1cccnc1)c1c[nH]c2ccc(OC)cc12
66 to 70 | CCOC(=O)Nc1ccc(Cl)c(N)n1
185 to 190 | CC(C)(C)C(=O)OCc1nc2cc3c(cc2c(=O)[nH]1)CCC3
173 to 174 | Cc1sc(-c2ccc(F)cc2)nc1O
77.9 | N#CC(N)c1ccc(F)cc1 (stereo not given)
97 to 98 | COC(=O)C(C)(C)c1ccc2cc(OC)ccc2c1
222 to 224 | COc1cccc2c1cc(C(=O)O)n2CC(=O)OC(C)(C)C
170 to 171 | CC1(c2[nH]c3ccccc3c2C2=C(Cl)C(=O)C=C(Cl)C2=O)CC1
154 to 155 | C=C1C(=C)C2OC1c1cc3cccc(OC)c3cc12 (stereo not given)
145 to 147 | COCn1c(C(N)=O)c(OC(C)C)c2cc(OC)ccc21
132 to 133 | CCOC(=O)c1ccc(-c2coc(-c3cccc(C(F)(F)F)c3)n2)cc1
175 to 176 | C[C@@H](SCCc1nccn1C)[C@](O)(Cn1cncn1)c1ccc(F)cc1F (racemic)
158 | COc1cc(C)c2c(=O)c3c(OC)cccc3oc2c1OC
134 to 135 | COC(=O)[C@H]1[C@@H](NC(=O)OC(C)(C)C)C(=O)N1Cc1ccc(OC)cc1OC (relative stereo)
219 to 220 | CC1(C)OC(=O)Nc2ccc(/C(=C/C(N)=O)c3ccccc3)cc21
164 to 166 | CCOC(=O)C1Cc2cc(-c3ccc(NC(C)=O)cc3)ccc2O1 (stereo not given)
124 to 125 | O=C1OCCc2ccc([N+](=O)[O-])cc21
128 to 130 | COC1Cc2ccc(F)cc2/C1=C/C(N)=O (stereo not given)
